For one test, the target named is T1, M6P/IGF-II receptor (Rattus norvegicus, UniProt G3V824).
T1 construct: cultured neonatal rat cardiac myocytes, which were known to express high levels of the M6P/IGF-II receptor; endogenous in cells; host or cells: primary neonatal rat cardiac myocytes
Put plainly: Internalization of 125I-IGF-II in cultured cardiac myocytes. In kind it is cell-based. The note with it: RA 2 μM; 2 h. The method, then:
FIG. 5 is a histogram summarizing data on the effect of RA on the internalization of ^125I-IGF-II. Assay was performed by incubating cells at […] for 2 h in media (150 mM NaCl, 5 mM KCl, 1.2 mM MgSO4, 8 mM glucose, 100 mM Hepes, pH 7.6) or F-10 culture medium containing ^125I-IGF-II (0.5 ng/ml) with or without excess unlabeled IGF-II (2 μg/ml), in the presence or absence of 2 μM RA. Following the incubation, the cells were washed three times with ice-cold PBS, and cell-associated radioactivity was determined by a gamma counter.
The primary functions of the Man-6-P/IGF-II receptor are to mediate endocytosis of extracellular M6P-containing proteins (e.g. lysosomal enzymes) and IGF-II and to sort newly synthesized lysosomal enzymes. Therefore, an important question raised by the direct interaction of RA with M6P/IGF2R is whether RA influences these functions of the receptor. To answer this question, we examined the effect of RA on endocytosis of exogenous β-glucuronidase and ^125I-IGF-II and intracellular activity of acid phosphatase in cultured neonatal rat cardiac myocytes, which were known to express high levels of the M6P/IGF-II receptor (Nissley et al., 1993, Mol. Reprod. Dev. 35:408-413). […] This indicated an increased sorting of lysosomal enzymes) (FIGS. 4-6). […]

The subject of the next test is neonatal rat fibroblasts. Put plainly: Immunofluorescence of cathepsin B distribution in fibroblasts. The note with it: RA 1 μM for 3 h; neonatal rat fibroblasts. The class given is cell-based. The text has this: FIGS. 8A and 8B are photomicrographs showing effect of retinoic acid on the distribution of cathepsin B in neonatal rat fibroblasts. […] The enzyme was found mainly in the perinuclear area. […] Bar represents 4 μm.
Since biosynthetic transport of lysosomal enzymes from the TGN to endosomes/lysosomes is mainly mediated by the M6P/IGF2R (Sohar et al., 1998, Biochem. J. 330:903-908), an enhanced trafficking of the receptor should lead to an increased translocation of the M6P-containing lysosomal enzymes from the TGN to lysosomes. To test this, we examined the effect of RA on the intracellular distribution of cathepsin B, a lysosomal protease known to be transported in a M6P-dependent manner in fibroblasts (Hanewinkel et al., 1987, J. Diol. Chem. 262:12351-12355). […] The distribution was similar to that of M6P/IGF2R (shift from perinuclear area to cytoplasmic vesicles throughout the cytoplasm).
(§1) Intracellular Trafficking Materials Retinoic acid was obtained from Sigma Chem. Co. (St. Louis, Mo.). The synthetic retinoids used (AGN193109, TTNPB) were produced by Allergan Inc. (Irvine, Calif.). Stably-transfected P388D1 cells re-expressing the M6P/IGF2R were provided by Dr. William S. Sly (St. Louis University). The rabbit polyclonal antibody against the rat M6P/IGF-II receptor was a gift from Dr. R.G. MacDonald (University of Nebraska). […]

Test [1] deals with P388D1 cells. Put plainly: Cathepsin B distribution in P388D1 cells lacking or overexpressing M6P/IGF2R. In kind it is cell-based, mouse.
Source text: Intracellular Trafficking Materials Retinoic acid was obtained from Sigma Chem. Co. (St. Louis, Mo.). The synthetic retinoids used (AGN193109, TTNPB) were produced by Allergan Inc. (Irvine, Calif.). Stably-transfected P388D1 cells re-expressing the M6P/IGF2R were provided by Dr. William S. Sly (St. Louis University). The rabbit polyclonal antibody against the rat M6P/IGF-II receptor was a gift from Dr. R.G. MacDonald (University of Nebraska). The rabbit polyclonal anti-rat cathepsin B antibody was purchased from Upstate Biotechnology (N.Y.). The FITC-conjugated goat anti-rabbit IgG was obtained from Jackson ImmunoResearch Laboratories (West Grove, Pa.). Neonatal rat cardiac fibroblasts were prepared from 1-day-old rats using the Neonatal Cardiomyocyte Isolation System (Worthington) and grown on glass coverslips in F-10 nutrient mixture with 10% horse serum and 5% fetal bovine serum (FBS). Cells were used in experiments after 3-5 days of culture. Mouse macrophage P3,88D1 cells were cultured in minimum essential medium-a (MEM-α) supplemented with 10% FBS.
Cells were then fixed with 4% paraformaldehyde in phosphate-buffered saline (PBS) for 30 min. The cells were washed in PBS, permeabilized with 0.1% Triton X-100 in PBS for 5 min, and then incubated with either polyclonal anti-rat M6P/IGF2R antibody or anti-rat cathepsin B antibody (diluted 1:200) at room temperature for 1 h. […]
The subject of test [2] is neonatal rat cardiac myocytes. Put plainly: Growth, morphology and apoptosis of cardiac myocytes. In kind it is cell-based. Here is the method:
Cultured neonatal rat cardiac myocytes were known to express high levels of the M6P/IGF2R protein. The effect of RA on the growth of normal, neonatal rat cardiac myocytes was examined.
Cell Isolation and Culture For the photoaffinity labeling experiments, cardiac myocytes were isolated from 1-day-old neonatal Sprague-Dawley rats, using the Neonatal Cardiomyocyte Isolation System (Worthington). The isolated cell were cultured on Petri dishes with culture medium (F-10 nutrient mixture/10% horse serum/5% fetal bovine serum/50 μg/ml streptomycin/50 units/ml penicillin G). Cells were used for experiments after 2-6 days of culture.

For test [3], the system named is P388D1 cells. Put plainly: RA effects on endocytosis, IGF-II internalization and acid phosphatase in receptor-negative cells. In kind it is cell-based, mouse. The source says: The primary functions of the Man-6-P/IGF-II receptor are to mediate endocytosis of extracellular M6P-containing proteins (e.g. lysosomal enzymes) and IGF-II and to sort newly synthesized lysosomal enzymes. Therefore, an important question raised by the direct interaction of RA with M6P/IGF2R is whether RA influences these functions of the receptor. To answer this question, we examined the effect of RA on endocytosis of exogenous β-glucuronidase and ^125I-IGF-II and intracellular activity of acid phosphatase in cultured neonatal rat cardiac myocytes, which were known to express high levels of the M6P/IGF-II receptor (Nissley et al., 1993, Mol. Reprod. Dev. 35:408-413). […] This indicated an increased sorting of lysosomal enzymes) (FIGS. 4-6). […] These effects of RA were not altered in the presence of a protein synthesis inhibitor (0.5 mM cycloheximide) and were not observed in the receptor-negative P388D1 cells. This indicated a direct interaction of RA with the M6P/IGF2R protein.

The next test addresses M6P/IGF2R (Rattus norvegicus, UniProt G3V824). Put plainly: Immunofluorescence of M6P/IGF2R distribution in fibroblasts. In kind it is cell-based. The arrangement: endogenous in cells; host or cells: primary neonatal rat cardiac fibroblasts. The note with it: RA 0.25-1 μM for 2-3 h; neonatal rat fibroblasts.
Source text: FIGS. 7A and 7B are photo micrographs showing the effect of retinoic acid on the distribution of the M6P/IGF2R in neonatal rat fibroblasts. […] The receptor was concentrated primarily in the perinuclear structure (probably the TGN area). […] Bar represents 4 μm.
To determine if RA affects intracellular trafficking of the M6P/IGF2R, distribution of the receptor in neonatal rat fibroblasts with or without RA treatment was visualized by immunofluorescence. The primary antibody used to target the receptor was a polyclonal anti-rat M6P/IGF2R (full length) rabbit IgG with high specificity. A non-immuno-rabbit IgG was used as a negative control. As indicated by fluorescence (FIGS. 7A and 7B), the M6P/IGF2R in the fibroblasts is normally concentrated primarily in the perinuclear structure (probably the TGN). […] This indicated a potentiating effect of RA on the trafficking of the M6P/IGF2R from the TGN to the endosomes/lysosomes.
as §1

Molecules are shown by their SMILES. Entries after “also recorded” stand apart in the source; their conditions may differ.

M6P/IGF2R, sequence (G3V824 36-2481): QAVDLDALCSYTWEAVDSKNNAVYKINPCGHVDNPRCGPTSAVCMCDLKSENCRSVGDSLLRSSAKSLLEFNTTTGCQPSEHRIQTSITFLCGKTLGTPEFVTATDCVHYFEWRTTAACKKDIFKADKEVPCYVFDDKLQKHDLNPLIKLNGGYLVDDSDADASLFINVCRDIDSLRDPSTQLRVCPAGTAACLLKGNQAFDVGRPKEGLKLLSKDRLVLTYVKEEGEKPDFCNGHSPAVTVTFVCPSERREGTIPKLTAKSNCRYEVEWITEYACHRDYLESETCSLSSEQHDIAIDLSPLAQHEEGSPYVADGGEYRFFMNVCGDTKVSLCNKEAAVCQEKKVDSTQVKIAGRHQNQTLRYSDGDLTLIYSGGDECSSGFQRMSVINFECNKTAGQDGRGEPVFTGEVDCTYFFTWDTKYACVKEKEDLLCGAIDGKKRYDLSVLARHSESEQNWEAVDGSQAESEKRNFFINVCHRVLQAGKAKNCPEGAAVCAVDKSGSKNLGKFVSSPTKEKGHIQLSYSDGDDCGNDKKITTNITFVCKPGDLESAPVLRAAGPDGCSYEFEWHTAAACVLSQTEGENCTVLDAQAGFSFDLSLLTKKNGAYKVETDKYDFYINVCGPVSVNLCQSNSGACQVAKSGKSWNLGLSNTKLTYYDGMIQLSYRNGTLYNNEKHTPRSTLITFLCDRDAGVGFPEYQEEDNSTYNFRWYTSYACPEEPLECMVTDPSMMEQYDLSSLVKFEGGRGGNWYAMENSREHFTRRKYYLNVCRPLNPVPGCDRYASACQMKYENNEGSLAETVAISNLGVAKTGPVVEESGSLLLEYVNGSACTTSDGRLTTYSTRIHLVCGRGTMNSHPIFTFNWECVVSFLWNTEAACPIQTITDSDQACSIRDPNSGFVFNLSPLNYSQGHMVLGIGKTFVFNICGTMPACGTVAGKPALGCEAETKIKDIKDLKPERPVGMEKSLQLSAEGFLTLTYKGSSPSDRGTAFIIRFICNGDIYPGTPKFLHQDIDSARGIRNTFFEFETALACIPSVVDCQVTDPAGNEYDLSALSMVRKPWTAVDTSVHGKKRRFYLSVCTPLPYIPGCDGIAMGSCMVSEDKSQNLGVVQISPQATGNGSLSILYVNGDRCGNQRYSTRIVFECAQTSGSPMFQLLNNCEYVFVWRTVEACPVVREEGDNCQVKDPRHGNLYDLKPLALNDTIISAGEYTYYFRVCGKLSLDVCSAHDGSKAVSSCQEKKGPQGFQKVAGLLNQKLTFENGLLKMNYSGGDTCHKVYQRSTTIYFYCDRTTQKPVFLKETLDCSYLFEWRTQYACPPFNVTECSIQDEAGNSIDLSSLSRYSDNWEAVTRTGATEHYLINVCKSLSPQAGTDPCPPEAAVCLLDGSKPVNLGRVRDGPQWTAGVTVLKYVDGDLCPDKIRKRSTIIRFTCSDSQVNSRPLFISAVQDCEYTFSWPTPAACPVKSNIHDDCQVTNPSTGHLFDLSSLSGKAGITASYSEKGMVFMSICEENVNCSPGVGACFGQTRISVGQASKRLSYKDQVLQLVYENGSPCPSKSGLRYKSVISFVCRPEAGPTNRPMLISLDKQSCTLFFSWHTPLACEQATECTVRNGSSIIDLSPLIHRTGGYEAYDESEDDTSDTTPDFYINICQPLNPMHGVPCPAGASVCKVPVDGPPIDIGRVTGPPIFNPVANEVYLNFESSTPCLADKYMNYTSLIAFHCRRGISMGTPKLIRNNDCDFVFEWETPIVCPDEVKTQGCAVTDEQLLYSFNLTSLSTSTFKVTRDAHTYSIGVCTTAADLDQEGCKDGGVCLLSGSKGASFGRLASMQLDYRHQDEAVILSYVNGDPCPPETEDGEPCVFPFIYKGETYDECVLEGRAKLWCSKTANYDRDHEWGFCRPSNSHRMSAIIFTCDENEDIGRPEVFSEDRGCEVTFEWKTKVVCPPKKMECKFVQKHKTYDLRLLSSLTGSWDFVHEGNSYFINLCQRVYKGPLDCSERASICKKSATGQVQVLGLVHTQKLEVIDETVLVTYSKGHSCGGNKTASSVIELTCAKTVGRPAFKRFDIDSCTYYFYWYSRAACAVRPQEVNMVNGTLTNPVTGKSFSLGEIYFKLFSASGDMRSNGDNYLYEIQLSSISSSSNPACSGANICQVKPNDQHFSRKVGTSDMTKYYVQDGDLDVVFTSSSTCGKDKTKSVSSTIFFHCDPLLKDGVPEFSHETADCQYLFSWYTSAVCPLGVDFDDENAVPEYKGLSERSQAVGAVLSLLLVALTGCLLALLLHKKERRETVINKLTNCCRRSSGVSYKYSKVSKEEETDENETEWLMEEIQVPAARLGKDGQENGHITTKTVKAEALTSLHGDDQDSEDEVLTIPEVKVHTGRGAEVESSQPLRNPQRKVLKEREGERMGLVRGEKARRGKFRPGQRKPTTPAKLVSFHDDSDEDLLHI
T1 sequence (G3V824 36-2481): as above

For `CC1=C(/C=C/C(C)=C/C=C/C(C)=C/C(=O)O)C(C)(C)CCC1` [RA, all-trans-retinoic acid], at M6P/IGF-II receptor, the “Increase of internalization of IGF-II” value is recorded as 30-50%. Further, in the test with neonatal rat fibroblasts, the “Intracellular distribution of cathepsin B” value is reported as “translocated from the perinuclear area to the cytoplasmic vesicles; also recorded: remarkable change in cathepsin B distribution”. In addition, the “RA-induced cathepsin B translocation” value in the test on P388D1 cells [1] (M6P/IGF2R-deficient P388D1 cells) is “No significant effect”; in the test on P388D1 cells [1] (stably-transfected P388D1 cells overexpressing M6P/IGF2R), “remarkable cathepsin B translocation”. Also, the “Cell morphology and growth” value in test [2] (48 hours) was “marked alteration of cell morphology, and inhibition of growth”. Besides, in test [2] (RA-treated cultures vs controls), the “Apoptotic cells (Hoechst 33258 nuclear staining)” value is recorded as “many more apoptotic cells”. Also, in the test on P388D1 cells [3], the “Effects of RA on endocytosis, IGF-II internalization and acid phosphatase in receptor-negative cells” value was “not observed”. Moreover, on M6P/IGF2R, the “Intracellular distribution of M6P/IGF2R” value is reported as “translocated from perinuclear area to cytoplasmic vesicles; also recorded: movement of the receptors from the perinuclear area to the cytoplasmic vesicles”.

The record behind these values is patent US6596500B1, “Binding of retinoids to M6P/IGF-II receptor” (The General Hospital Corporation, priority 1998, dated 2003).
